Experimental data published in US20170275302A1, “INHIBITORS OF THE RENAL OUTER MEDULLARY POTASSIUM CHANNEL” (Merck Sharp & Dohme Corp., priority 2014, published 2017).

target: T1, hROMK (hKir1.1) (Homo sapiens, UniProt P48048); experiment: Thallium Flux Assay (ROMK channel functional thallium flux assay, FLIPR-Tetra); format: cell-based; settings: HEK293 cells stably expressing hROMK (hKir1.1); FluxOR thallium flux, 30 min compound incubation; concentration inhibiting 50% of ROMK thallium flux signal
T1 construct: expressed in transfected cells
T1 sequence (P48048 1-391): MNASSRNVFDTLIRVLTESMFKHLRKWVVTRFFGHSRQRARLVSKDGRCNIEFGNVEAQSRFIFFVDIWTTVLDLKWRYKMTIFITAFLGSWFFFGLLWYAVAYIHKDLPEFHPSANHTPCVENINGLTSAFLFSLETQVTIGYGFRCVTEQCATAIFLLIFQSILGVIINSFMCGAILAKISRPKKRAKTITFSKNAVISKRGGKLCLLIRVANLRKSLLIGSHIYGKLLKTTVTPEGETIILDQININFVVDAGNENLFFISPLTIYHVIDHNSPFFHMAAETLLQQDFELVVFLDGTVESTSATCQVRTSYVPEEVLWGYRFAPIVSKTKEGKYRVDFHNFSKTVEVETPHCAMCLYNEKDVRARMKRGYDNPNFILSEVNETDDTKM
Method: The following Thallium Flux Assay was performed on each of the final product compounds in the Examples.
HEK293 cells stably expressing hROMK (hKir1.1) were grown at 37° C. in a 10% CO2 humidified incubator in complete growth media: Dulbecco's Modified Eagle Medium supplemented with non-essential amino acids, Penicillin/Streptomycin/Glutamine, G418 and FBS. At >80% confluency, the media was aspirated from the flask and rinsed with 10 mL calcium/magnesium-free phosphate buffered saline (PBS). 5 mL of 1× trypsin (prepared in Ca/Mg Free PBS) was added to T-225 flask and the flask was returned to 37° C./CO2 incubator for 2-3 minutes. To dislodge the cells, the side of the flask was gently banged with one's hand. The cells were completely titrated and then the cells were transferred to 25 mL complete media, centrifuged at 1,500 rpm for 6 min followed by resuspension in complete growth media, and the cell concentration was determined. For typical re-seeding, 4E6 cells/T-225 flask will attain >80% confluency in 4 days. Under ideal growth conditions and appropriate tissue culture practices, this cell line is stable for 40-45 passages.
Compound Buffer (per microplate): 20 mL Probenecid/Assay Buffer; 0.3 mM ouabain (10 mM ouabain in water can be stored in amber bottle/aluminum foil at room temperature); Test compound
Stimulant Buffer (prepared at 5× final concentration in 1× FluxOR™Chloride-Free Buffer): 7.5 mM thallium sulfate and 0.75 mM potassium sulfate (to give a final assay concentration of 3 mM Thallium/0.3 mM potassium). Store at 4° C. when not in use. If kept sterile, this solution is good for months.
The ROMK channel functional thallium flux assay was performed in 384 wells, using the FLIPR-Tetra instrument. HEK-hKir1.1 cells were seeded in Poly-D-Lysine microplates and kept in a 37° C.-10% CO2 incubator overnight. On the day of the experiment, the growth media was replaced with the FluxOR™ reagent loading buffer and incubated, protected from light, at ambient temperature (23-25° C.) for 90 min. The loading buffer was replaced with assay buffer±test compound followed by 30 min incubation at ambient temperature, where the thallium/potassium stimulant was added to the microplate.
• 1. Seed HEK-hKir1.1 cells (50 μl at 20,000 cells/well) in 384-well PDL coated Microplates • 2. Allow cells to adhere overnight in humidified 37° C./10% CO2 incubator • 3. Completely remove cell growth media from microplate and replace with 25 μl loading buffer • 4. Incubate Microplate at room temperature, protected form light, for 90 min • 5. Remove loading buffer and replace with 25 μl 1× Assay Buffer±test compound. • 6. Incubate microplate at room temperature, protected from light, for 30 min • 7. At FLIPR-Tetra 384: Add stimulant (thallium/potassium) solution to microplate and monitor fluorescence. Excitation=400 nm, Emission=460 & 580 nm. Collect data for ˜10 min.
The fluorescence intensity of wells containing 3 μM of a standard control ROMK inhibitor of the present invention was used to define the ROMK-sensitive component of thallium flux. Fluorescence in the presence of test compounds was normalized to control values to provide % fluorescence change. IC50 values represent the concentration of compound that inhibited 50% of the ROMK thallium flux signal.

Row | Compound | IC50 [µM]
1 | Cc1c([C@@H](O)CN2CCC3(CC2)CCN(c2snc4cccnc24)C3=O)ccc2c1COC2=O [Example 83] | 0.0339
2 | Cc1c([C@@H](O)CN2CCC3(CC2)CCN(c2snc4ncccc24)C3=O)ccc2c1COC2=O [Example 84] | 0.0571
3 | Cc1c([C@@H](O)CN2CCC3(CC2)CCN(c2snc4ccncc24)C3=O)ccc2c1COC2=O [Example 85] | 0.0185
4 | Cc1c([C@@H](O)CN2CCC3(CC2)CCN(c2ccc4cnnn4c2)C3=O)ccc2c1COC2=O [Example 86] | 0.172
5 | Cc1c([C@@H](O)CN2CCC3(CC2)CCN(c2ccn4cncc4c2)C3=O)ccc2c1COC2=O [Example 87] | 0.26
6 | Cc1c([C@@H](O)CN2CCC3(CC2)CCN(c2ccn4nncc4c2)C3=O)ccc2c1COC2=O [Example 88, (R)-2-([1,2,3]triazolo[1,5-a]pyridin-5-yl)-8-(2-hydroxy-2-(4-methyl-1-oxo-1,3-dihydroisobenzofuran-5-yl)ethyl)-2,8-diazaspiro[4.5]decan-1-one] | 0.0292
7 | Cc1c([C@@H](O)CN2CCC3(CC2)CC(=O)N(c2ccc4nonc4c2)C3)ccc2c1COC2=O [Example 89, (R)-2-(benzo[c][1,2,5]oxadiazol-5-yl)-8-(2-hydroxy-2-(4-methyl-1-oxo-1,3-dihydroisobenzofuran-5-yl)ethyl)-2,8-diazaspiro[4.5]decan-3-one] | 0.0427
8 | Cc1c([C@@H](O)CN2CCC3(CC2)CCN(c2ccc4nonc4c2)C3)ccc2c1COC2=O [Example 90] | 0.0983
9 | Cc1c([C@@H](O)CN2CCC3(CC2)CCN(c2nccn4ccnc24)C3)ccc2c1COC2=O [Example 91] | 0.699
10 | Cc1c([C@@H](O)CN2CCC3(CC2)CCN(c2cnc4nonc4c2)C3)ccc2c1COC2=O [Example 92, (R)-5-(2-(2-([1,2,5]oxadiazolo[3,4-b]pyridin-6-yl)-2,8-diazaspiro[4.5]decan-8-yl)-1-hydroxyethyl)-4-methylisobenzofuran-1(3H)-one] | 0.0273
11 | Cc1c([C@@H](O)CN2CCC3(CC2)CC(=O)N(c2ccc4nonc4n2)C3)ccc2c1COC2=O [Example 93] | 0.274
12 | Cc1c([C@@H](O)CN2CCC3(CC2)CC(=O)N(c2cnc4nonc4c2)C3)ccc2c1COC2=O [Example 94] | 0.109
13 | Cc1c([C@@H](O)CN2CCC3(CC2)CCN(c2ccc4nonc4n2)C3)ccc2c1COC2=O [Example 95, (R)-5-(2-(2-([1,2,5]oxadiazolo[3,4-b]pyridin-5-yl)-2,8-diazaspiro[4.5]decan-8-yl)-1-hydroxyethyl)-4-methylisobenzofuran-1(3H)-one] | 0.0192
